Data reported in patent EP1793006A2, “Nucleic acid ligands and improved methods for producing the same” (priority 1993, dated 1995).
Where a SMILES comes first, the peptide text is derived from it. The star is where a group is joined. pNA = O=[N+]([O-])c1ccc(N*)cc1; MeOSuc = COC(=O)CCC(=O)*

Tests used:
TCT8-4 RNA = assay: Competition binding of xanthine derivatives, equilibrium filtration; details: for Ki: 1 µM 14C-theophylline, 3.3 µM TCT8-4 RNA, read-out: Kc; for Kc(c)/Kc(t): competitor relative to theophylline
Method: An attractive feature of a small molecule-RNA interaction is the opportunity to readily investigate quantitatively the relative contribution of various constituents of the small molecule to the overall binding. Competition binding experiments were conducted with a variety of xanthine derivatives and related compounds. In these experiments, the effect of competitor added at various concentrations on the ^14C-theophylline-TCT8-4 RNA interaction was measured. Of particular interest were the roles of CH3 residues at the 1, 3, and 7 positions; these were assessed both individually and in combination. In addition, 1,3-dimethyluric acid probes the 8-position, as it contains a keto oxygen there relative to theophylline, and hypoxanthine, lacking the 2-position keto oxygen of xanthine, permit assessment of this constituent.
Equilibrium filtration assays were performed by the addition of various concentrations of the potential competitor to 1 µM [^14C]-theophylline and 3.3 µM TCT8-4 RNA (SEQ ID NO:249) in a 150 µl reaction mixture containing 100 mM HEPES buffer. Each reaction was performed as described in Example 23. Competition data were fit using a standard competition equation and fitting procedure (Gill et al. (1991) J. Mol. Biol. 220:307) assuming a 1:1 stoichiometry of competitor to RNA. […] From such data a competitor dissociation constant (Kc) was obtained. Under the condition where theophylline and the specific competitor bind to the same site, Kc = Kd.

T7 RNA polymerase = molecular target: T1, T7 RNA polymerase (Escherichia phage T7, UniProt P00573); assay: Incorporation of modified nucleotide triphosphates into RNA by T7 RNA polymerase transcription; format: biochemical; details: for efficiency of transcription (incorporation) as compared to UTP: three hours, 2 mM ribonucleotide triphosphates, 100 nM double-stranded DNA template, 5 units/ul T7 RNA polymerase
T1 construct: purchased NEB
T1 sequence (P00573 whole entry): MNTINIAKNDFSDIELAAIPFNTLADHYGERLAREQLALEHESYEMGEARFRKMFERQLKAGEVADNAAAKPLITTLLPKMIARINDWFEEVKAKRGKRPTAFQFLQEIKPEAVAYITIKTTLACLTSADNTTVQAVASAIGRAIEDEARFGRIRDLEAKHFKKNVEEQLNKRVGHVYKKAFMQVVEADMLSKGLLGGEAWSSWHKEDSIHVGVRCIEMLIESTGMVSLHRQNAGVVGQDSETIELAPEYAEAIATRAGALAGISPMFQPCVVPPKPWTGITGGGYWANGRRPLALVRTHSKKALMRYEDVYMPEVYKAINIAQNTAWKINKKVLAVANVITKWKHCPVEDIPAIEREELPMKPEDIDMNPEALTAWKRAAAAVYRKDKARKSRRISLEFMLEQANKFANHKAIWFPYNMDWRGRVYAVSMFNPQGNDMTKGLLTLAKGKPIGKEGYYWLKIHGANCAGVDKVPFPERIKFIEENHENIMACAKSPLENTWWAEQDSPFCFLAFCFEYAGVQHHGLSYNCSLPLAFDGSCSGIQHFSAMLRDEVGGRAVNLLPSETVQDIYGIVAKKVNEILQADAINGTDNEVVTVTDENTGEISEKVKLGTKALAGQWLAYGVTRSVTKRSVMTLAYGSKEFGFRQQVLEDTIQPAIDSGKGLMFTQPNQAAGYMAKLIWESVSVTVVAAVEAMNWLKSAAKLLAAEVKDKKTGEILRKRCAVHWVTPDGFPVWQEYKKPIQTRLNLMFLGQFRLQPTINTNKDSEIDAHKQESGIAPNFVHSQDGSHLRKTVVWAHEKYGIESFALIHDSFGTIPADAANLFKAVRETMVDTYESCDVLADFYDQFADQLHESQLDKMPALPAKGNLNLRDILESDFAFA
Method: Incorporation of 5-modified uridines into RNA. Four prototypic 5-modified uridines, 5-AA-UTP, 5-F-12-UTP, 5-Dig-11-UTP, and 5-Br-UTP (shown in Figure 2) were incorporated into RNA by the T7.RNA polymerase under standard transcription conditions (40 mM Tris-Cl, pH 8.0, 12 mM MgCl2, 5 mM DTT, 1 mM spermidine, 0.002% Triton X-100, 4% PEG, 37°C). Autoradiogram of a 15% denaturing polyacrylamide gel showing products of transcription done with UTP, 5-AA-UTP, and 5-Br-UTP is shown in Figure 3. The efficiency of transcription was estimated from the total amounts of ^32P-radiolabelled transcript produced after three hours of incubation with 2 mM ribonucleotide triphosphates, 100 nM double-stranded DNA template, and 5 units/ul of T7 RNA polymerase (NEB). 5-AA-UTP, 5-F-12-UTP, 5-Dig-11-UTP, and 5-Br-UTP were incorporated with 28%, 51%, 23%, and 50% efficiency, respectively, as compared to UTP. No transcription was detectable when UTP was omitted from the transcription mixture.
The 2'-amino group of 2'-amino,2'-deoxyuridine is trifluoroacetylated (Imazawa et al. (1979) J. Org. Chem. 44:2039) in 82% yield. This intermediate is phosphorylated at the 5'-position (Ludwig and Eckstein (1989) J. Org. Chem. 54:631) in 61% yield. The 5-iodo derivative of the 2'-amino,2'-deoxyuridine 5'-triphosphate was prepared by mercuration (Dale et al. (1975) Biochemistry 14:2447) in a single step.
RGD-UTP transcription and purification. RGD-UTP was used in a T7 RNA polymerase reaction by direct substitution for normal UTP, and gave yields that were at least 50% of those obtainable with UTP. The concentration of RGD-UTP and other NTPs was 1 mM; the DNA template contained 5' and 3' fixed regions flanking a 30 base pair random sequence. The RNA transcript was purified by adsorption onto an anion exchange column (Mono Q)in a phosphate buffer containing 6 M urea and 50% formamide, and eluted with a gradient to 1 M NaCl (Figure 16). RGD-RNA eluted as one major peak from the column at a position in the gradient slightly ahead of the elution position of an equivalent RNA transcript made with normal UTP, consistent with the altered charge and perhaps altered conformation of the derivatized RNA.

[1] = molecular target: T2, Human neutrophil elastase (Homo sapiens, UniProt P08246); assay: Elastase inhibition assay with chromogenic tetrapeptide substrate; format: biochemical; details: Lineweaver-Burk plot
T2 construct: purchased Athens Research and Technology, Athens, Georgia
T2 sequence (P08246 30-267): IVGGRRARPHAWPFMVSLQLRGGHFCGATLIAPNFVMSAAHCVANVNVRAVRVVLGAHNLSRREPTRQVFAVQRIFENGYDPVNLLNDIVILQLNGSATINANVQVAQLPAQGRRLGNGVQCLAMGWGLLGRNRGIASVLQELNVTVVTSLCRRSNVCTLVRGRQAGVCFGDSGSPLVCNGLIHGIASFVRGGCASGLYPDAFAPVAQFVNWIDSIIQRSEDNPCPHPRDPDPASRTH
Excerpt: Elastase inhibition assay. The assay for elastase inhibition is based on the use of a chromogenic tetrapeptide substrate. […] The rate of p-nitroanilide generation in the absence of inhibitor was used as the control.
Elastase Inhibition Assay. The assay for elastase inhibition is based on the use of a chromogenic tetrapeptide substrate. […] The rate of p-nitroanilide generation in the absence of inhibitor was used as the negative control; the positive control contained the irreversible inhibitor N-methoxysuccinyl-Ala-Ala-Pro-Val-chloromethyl ketone. OD values were plotted against time, and the slope used to determine the rate of enzyme activity.

[2] = molecular target: Human neutrophil elastase (human) (UniProt P08246); assay: elastase inhibition assay with chromogenic substrate, Lineweaver-Burk plot (Figure 22)

Compound | Ki (TCT8-4 RNA) [µM] | Kc(c)/Kc(t) (TCT8-4 RNA) | also measured
Cn1c(=O)c2[nH]cnc2n(C)c1=O [Theophylline, 1,3-dimethylxanthine] | 0.32 ± 0.13 | 1 | Kd (TCT8-4 RNA; read-out: Kd for theophylline to RNA used for the competition fit): 0.45 µM
Cn1cnc2c1c(=O)[nH]c(=O)n2C [3,7-dimethylxanthine] | > 500 | > 1500 | recognition by TCT8-4 RNA (TCT8-4 RNA): recognized poorly
NCC=Cc1cn(C2OC(COP(=O)(O)OP(=O)(O)OP(=O)(O)O)C(O)C2O)c(=O)[nH]c1=O (stereo not shown) [5-AA-UTP, 5-(3-aminoallyl)uridine triphosphate] |  |  | efficiency of transcription (incorporation) as compared to UTP (T7 RNA polymerase): 28%
N[C@@H]1[C@H](O)[C@@H](COP(=O)(O)OP(=O)(O)OP(=O)(O)O)O[C@H]1n1cc(I)c(=O)[nH]c1=O [5-iodo,2'-amino,2'-deoxyuridine 5'-triphosphate] |  |  | substrate for T7 RNA polymerase (T7 RNA polymerase): substrates for T7 RNA polymerase
5-digoxygenin-11-uridine triphosphate [5-Dig-11-UTP] |  |  | efficiency of transcription (incorporation) as compared to UTP (T7 RNA polymerase): 23%
N[C@@H]1[C@H](O)[C@@H](COP(=O)(O)OP(=O)(O)OP(=O)(O)O)O[C@H]1n1ccc(=O)[nH]c1=O [2'-amino,2'-deoxyuridine 5'-triphosphate] |  |  | substrate for T7 RNA polymerase (T7 RNA polymerase): substrates for T7 RNA polymerase
N-methoxysuccinyl Ala-Ala-Pro-Val |  |  | Ki [1]: 920 µM
5-fluorescein-12-uridine triphosphate [5-F-12-UTP] |  |  | efficiency of transcription (incorporation) as compared to UTP (T7 RNA polymerase): 51%
Cn1c(=O)[nH]c2nc[nH]c2c1=O [1-methylxanthine] | 9 ± 0.3 | 28 | 
O=c1[nH]c(=O)n([C@@H]2O[C@H](COP(=O)(O)OP(=O)(O)OP(=O)(O)O)[C@@H](O)[C@H]2O)cc1Br [5-Br-UTP, 5-bromouridine triphosphate] |  |  | efficiency of transcription (incorporation) as compared to UTP (T7 RNA polymerase): 50%
O=c1[nH]cnc2nc[nH]c12 [Hypoxanthine] | 49 ± 10 | 153 | competition, fold less efficient than xanthine (TCT8-4 RNA): approximately 5 fold
Cn1c(=O)c2c(ncn2C)n(C)c1=O [Caffeine, 1,3,7-trimethylxanthine] | 3500 ± 1500 | 10900 | recognition by TCT8-4 RNA (TCT8-4 RNA): extremely poor competitor
O=c1[nH]c(=O)c2[nH]cnc2[nH]1 [Xanthine] | 8.5 ± 0.4 | 27 | competition, fold less effective than theophylline (TCT8-4 RNA): about 23 fold
N-methoxysuccinyl Ala-Ala-Pro-Val (SEQ ID NO:44) (peptide) |  |  | Ki [2]: 920 µM
Cn1c(=O)[nH]c(=O)c2[nH]cnc21 [3-methylxanthine] | 2 ± 0.7 | 6.3 | competition, fold better relative to xanthine (TCT8-4 RNA): approximately 5 fold
1-carboxypropyl theophylline [CP-Theophylline] | 0.93 ± 0.2 | 2.9 | 
COC(=O)CCC(=O)N[C@@H](C)C(=O)N[C@@H](C)C(=O)N1CCC[C@H]1C(=O)N[C@H](C(=O)Nc1ccc([N+](=O)[O-])cc1)C(C)C [substrate, N-methoxysuccinyl-Ala-Ala-Pro-Val-p-nitroanilide] (MeOSuc-AAPV-pNA) |  |  | Km [1]: 160 µM
Cn1cnc2[nH]c(=O)[nH]c(=O)c21 [7-methylxanthine] | > 500 | > 1500 | competition, fold less efficient than xanthine (TCT8-4 RNA): at least 1500 fold
